Values of other authors, collected in PMC7904743, “WIDOCK: a reactive docking protocol for virtual screening of covalent inhibitors” (Journal of Computer-Aided Molecular Design, 2021).
Read-outs that look alike come from different tables or passages of the source.

What was measured:
OTUB2 = OTUB2 protein labeling; experimental actives if % labeling higher than 50%; cited from earlier work
[1] = thiol reactivity, cited from earlier work
NUDT7 = conditions: protein labeling at 200 μM; experimental actives if % labeling higher than 50%; cited from earlier work
[2] = natural log of average kinetic rate constant
[3] = natural log of average rate constant

| Structure (SMILES) | OTUB2 % labeling (OTUB2) [%] | ln(avg k) [1, 2] | ln(avg k) [1, 3] | NUDT7 % labeling (NUDT7) [%] |
| --- | --- | --- | --- | --- |
| Cc1ccccc1NC(=O)CCl [PCM-0102887, Cc1ccccc1NC(=O)CCl] | 0 | -16.445 | -16.445 | 0 |
| O=C(CCl)N1CCN(c2cnccn2)CC1 [PCM-0102889, O=C(CCl)N1CCN(c2cnccn2)CC1] | 0 | -15.833 | -15.833 | 0 |
| O=C(CCl)Nc1ccc(Cl)nc1 [PCM-0102891, O=C(CCl)Nc1ccc(Cl)nc1] | 0 | -15.610 | -15.610 | 25 |
| CC(=O)Nc1ccc(NC(=O)CCl)c(C(F)(F)F)c1 [PCM-0102895, CC(=O)Nc1ccc(NC(=O)CCl)c(C(F)(F)F)c1] | 0 | -16.611 | -16.611 | 0 |
| O=C(CCl)NCC1CCS(=O)(=O)C1 (centres unmarked) [PCM-0102896, O=C(CCl)NCC1CCS(=O)(=O)C1] | 23 | -16.032 | -16.032 | 0 |
| CN(Cc1cc(C#N)ccc1F)C(=O)CCl [PCM-0102897, CN(Cc1cc(C#N)ccc1F)C(=O)CCl] | 0 | -15.579 | -15.579 | 7 |
| CN(Cc1ccc(Cl)s1)C(=O)CCl [PCM-0102898, CN(Cc1ccc(Cl)s1)C(=O)CCl] | 0 | -15.575 | -15.575 | 29 |
| CN(Cc1cnn(C)c1)C(=O)CCl [PCM-0102899, CN(Cc1cnn(C)c1)C(=O)CCl] | 26 | -15.596 | -15.596 | 8 |
| CCN(C(=O)CCl)c1ccc(F)cc1 [PCM-0102900, CCN(C(=O)CCl)c1ccc(F)cc1] | 0 | -15.837 | -15.837 | 29 |
| NS(=O)(=O)c1ccccc1NC(=O)CCl [PCM-0102903, NS(=O)(=O)c1ccccc1NC(=O)CCl] | 14 | -14.783 | -14.783 | 29 |
| COCC(=O)NC(=O)CCl [PCM-0102904, COCC(=O)NC(=O)CCl] | 0 | -18.669 | -18.669 | 0 |
| O=C(CCl)N1CCN(c2ccc(F)cc2)CC1 [PCM-0102905, O=C(CCl)N1CCN(c2ccc(F)cc2)CC1] | 7 | -15.525 | -15.525 | 10 |
| COC(=O)CNC(=O)CCl [PCM-0102906, COC(=O)CNC(=O)CCl] | 6 | -17.517 | -17.517 | 0 |
| O=C(CCl)NC(=O)Nc1ccc2c(c1)OCCCO2 [PCM-0102910, O=C(CCl)NC(=O)Nc1ccc2c(c1)OCCCO2] | 0 | -16.097 | -16.097 | 0 |
| COC(=O)c1cc(Cl)cc(Cl)c1NC(=O)CCl [PCM-0102912, COC(=O)c1cc(Cl)cc(Cl)c1NC(=O)CCl] | 0 | -17.100 | -17.100 | 17 |
| CC1CCC(NC(=O)CCl)CC1 (centres unmarked) [PCM-0102913, CC1CCC(NC(=O)CCl)CC1] | 8 | -16.529 | -16.529 | 0 |
| O=C(CCl)Nc1ccc(Cl)cc1Cl [PCM-0102914, O=C(CCl)Nc1ccc(Cl)cc1Cl] | 14 | -16.384 | -16.384 | 22 |
| O=C(CCl)Nc1ccc(N2CCCC2=O)cc1 [PCM-0102915, O=C(CCl)Nc1ccc(N2CCCC2=O)cc1] | 49 | -15.819 | -15.819 | 0 |

| Structure (SMILES) | OTUB2 % labeling (OTUB2) [%] | ln(avg k) [1, 2] | ln(avg k) [1, 3] | NUDT7 % labeling (NUDT7) [%] |
| --- | --- | --- | --- | --- |
| CN(C(=O)CCl)C1(C#N)CCCCC1 [PCM-0102916, CN(C(=O)CCl)C1(C#N)CCCCC1] | 0 | -15.114 | -15.114 | 0 |
| CC(=O)c1oc2ccccc2c1NC(=O)CCl [PCM-0102918, CC(=O)c1oc2ccccc2c1NC(=O)CCl] | 0 | -15.842 | -15.842 | 39 |
| O=C(CCl)N1CCN(Cc2ccccc2)C1=O [PCM-0102919, O=C(CCl)N1CCN(Cc2ccccc2)C1=O] | 10 | -18.275 | -18.275 | 0 |
| O=C(CCl)N1CCC(c2nc3ccccc3o2)CC1 [PCM-0102920, O=C(CCl)N1CCC(c2nc3ccccc3o2)CC1] | 0 | -15.428 | -15.428 | 0 |
| CN1CCN(C(=O)CCl)CC1 [PCM-0102921, CN1CCN(C(=O)CCl)CC1] | 0 | -17.315 | -17.315 | 0 |
| CC(C)(C)OC(=O)N1CCCC(CNC(=O)CCl)C1 (centres unmarked) [PCM-0102923, CC(C)(C)OC(=O)N1CCCC(CNC(=O)CCl)C1] | 20 | -16.613 | -16.613 | 0 |
| O=C(CCl)Nc1ccc(Br)cc1F [PCM-0102926, O=C(CCl)Nc1ccc(Br)cc1F] | 20 | -16.464 | -16.464 | 17 |
| CC(C)c1nnc(NC(=O)CCl)s1 [PCM-0102928, CC(C)c1nnc(NC(=O)CCl)s1] | 0 | -15.769 | -15.769 | 4 |
| COc1ccc(C2=CCN(C(=O)CCl)CC2)cc1 [PCM-0102929, COc1ccc(C2=CCN(C(=O)CCl)CC2)cc1] | 0 | -16.042 | -16.042 | 45 |
| O=C(CCl)Nc1ccncc1 [PCM-0102930, O=C(CCl)Nc1ccncc1] | 0 | -16.813 | -16.813 | 0 |
| O=C(CCl)NC1CCN(C(=O)C2CCCCC2)CC1 [PCM-0102931, O=C(CCl)NC1CCN(C(=O)C2CCCCC2)CC1] | 9 | -16.253 | -16.253 | 0 |
| CC(=O)N1CCC(NC(=O)CCl)CC1 [PCM-0102932, CC(=O)N1CCC(NC(=O)CCl)CC1] | 7 | -16.417 | -16.417 | 0 |
| CC1CCCN(C(=O)C2CCN(C(=O)CCl)CC2)C1 (centres unmarked) [PCM-0102933, CC1CCCN(C(=O)C2CCN(C(=O)CCl)CC2)C1] | 0 | -15.328 | -15.328 | 0 |
| O=C(CCl)NC1(c2ccccc2)CCC1 [PCM-0102935, O=C(CCl)NC1(c2ccccc2)CCC1] | 0 | -16.140 | -16.140 | 29 |
| N#Cc1cccc(CNC(=O)CCl)c1 [PCM-0102936, N#Cc1cccc(CNC(=O)CCl)c1] | 32 | -16.667 | -16.667 | 0 |
| CCOC(=O)C1CCCCN1C(=O)CCl (centres unmarked) [PCM-0102937, CCOC(=O)C1CCCCN1C(=O)CCl] | 13 | -16.030 | -16.030 | 0 |
| COc1ccc(C2CCCN2C(=O)CCl)cc1 (centres unmarked) [PCM-0102938, COc1ccc(C2CCCN2C(=O)CCl)cc1] | 0 | -15.798 | -15.798 | 100 |
